This is an account of results in ChEMBL document CHEMBL1151412, “Constituents of Couepia paraensis” (1983).

Each structure is given as a SMILES string. Converted amounts (≈) assume the structure as drawn.

In this assay the test system is KB. As to the kind of experiment: Cytotoxicity against human KB cells. The format is functional. As to conditions: read-out: ED50 (the source's name).

Turning to `COc1c(OC)c(O)c2c(=O)cc(C)oc2c1C`, the EC50 worked out at 60 µg/mL (≈ 240 µM).
